Experimental data taken from paper PMC10904284 (iScience, 2024).

Biological target: CLso STP (Candidatus Liberibacter solanacearum, UniProt A0A094YYW1)
Assay type: binding

Sequence of CLso STP (A0A094YYW1 1-207): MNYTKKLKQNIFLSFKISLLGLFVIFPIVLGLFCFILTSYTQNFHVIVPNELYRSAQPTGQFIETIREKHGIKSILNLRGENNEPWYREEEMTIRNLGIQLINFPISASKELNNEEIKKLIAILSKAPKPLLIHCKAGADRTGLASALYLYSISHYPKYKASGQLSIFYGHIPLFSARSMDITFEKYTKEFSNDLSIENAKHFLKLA

Question: With Glucose 6-phosphate [G6P] as the substance, how does the Ka read?
Answer: Its Ka is 17.58 M⁻¹ s⁻¹.
